Assay results: patent publication US20250163104A1, “MACROCYCLIC IMMUNOMODULATORS” (priority 2021, published 2025)
Where a SMILES comes first, the peptide text is derived from it. Bridges are numbered along the chain shown (N, C = ends). [ ]: non-standard residue; d: D form. The star is where a group is joined. ξ: configuration not given here. Bip = N[C@@H](Cc1ccc(-c2ccccc2)cc1)C(=O)O; Phe(2-F) = N[C@@H](Cc1ccccc1F)C(=O)O; Val(3-OH) = CC(C)(O)[C@H](N)C(=O)O; 4Pal = N[C@@H](Cc1ccncc1)C(=O)O; Cha = N[C@@H](CC1CCCCC1)C(=O)O; Cit = NC(=O)NCCC[C@H](N)C(=O)O; Thr(3ξ) = CC(O)[C@H](N)C(=O)O; Carboxymethyl = O=C(O)C*; Orn = NCCC[C@H](N)C(=O)O; Dab = NCC[C@H](N)C(=O)O; Dap = NC[C@H](N)C(=O)O

What follows are compounds tested against T1, human PD-1 / PD-L1-Ig binding on Jurkat cell line over-expressing human PD-1 (Jurkat-PD-1) (Homo sapiens, UniProt Q15116) (assay: Jurkat-PD-1 Cell Binding High-Content Screening Assay (CBA)). Details: Jurkat-PD-1 cells, PE-labeled PD-L1-Ig 20 nM final; read-out: Jurkat HPD1_PDL1 IC50.
T1 construct: expressed in transfected cells; host or cells: Jurkat
Assay type: cell-based
In short: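 PE-PD-L1-Ig 20 nM final; cells in DMEM/10% FCS; cpd pre-incubation 2 h, 37° C; ligand 1 h; PFA fix + Hoechst 33342; high-content imaging read-out.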

T1 sequence (Q15116 25-288): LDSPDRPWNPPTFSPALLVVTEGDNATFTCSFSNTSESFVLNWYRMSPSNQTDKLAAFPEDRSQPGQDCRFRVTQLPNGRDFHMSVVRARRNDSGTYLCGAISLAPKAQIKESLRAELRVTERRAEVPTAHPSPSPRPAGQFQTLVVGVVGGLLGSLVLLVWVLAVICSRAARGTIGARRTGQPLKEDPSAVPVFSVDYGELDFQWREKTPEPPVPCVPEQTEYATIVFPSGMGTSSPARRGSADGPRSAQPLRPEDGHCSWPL

| Compound | IC50 |
| --- | --- |
| CC(C)C[C@H]1NC(=O)[C@H](CCCN)NC(=O)[C@H](CCC(=O)O)NC(=O)[C@H](Cc2ccc(-c3ccccc3)cc2)NC(=O)[C@H](C(C)C)NC(=O)[C@H](Cc2c[nH]c3ccccc23)NC(=O)[C@H](CC(=O)O)NC(=O)[C@H](Cc2ccncc2)NC(=O)[C@H](Cc2ccc(OCC(=O)O)cc2)NC(=O)CSC[C@@H](C(=O)N[C@@H](C)C(N)=O)NC(=O)[C@H]([C@@H](C)O)NC(=O)[C@H](C(C)C)NC(=O)[C@H](CC2CCCCC2)NC(=O)[C@H](CCN)NC1=O [Compound 1423] | 9.9 nM |
| CC(C)C[C@@H]1NC(=O)[C@H](C(C)C)NC(=O)[C@H](CC2CCCCC2)NC(=O)[C@H](CCN)NC(=O)[C@@H](CC(C)C)NC(=O)[C@H](CCCN)NC(=O)[C@H](CCCNC(N)=O)NC(=O)[C@H](Cc2ccc(-c3ccccc3)cc2)NC(=O)[C@H](C(C)C)NC(=O)[C@H](Cc2c[nH]c3ccccc23)NC(=O)[C@H](CC(=O)O)NC(=O)[C@H](Cc2ccc(OCC(=O)O)cc2)NC(=O)[C@H](CN)NC(=O)CSC[C@@H](C(=O)N[C@@H](C)C(N)=O)NC1=O [Compound 1321] ({CH2CO}-[Dap]Y(Carboxymethyl)DWV[Bip][Cit][Orn][dL][Dab][Cha]VLCA-NH2; thioether N-14) | 78.6 nM |
| CC(C)C[C@H]1NC(=O)[C@H](CCCN)NC(=O)[C@H](C(C)C)NC(=O)[C@H](Cc2ccc(-c3ccccc3)cc2)NC(=O)[C@H](C(C)C)NC(=O)[C@H](Cc2c[nH]c3ccccc23)NC(=O)[C@H](CC(=O)O)NC(=O)[C@H](Cc2ccc(OCC(=O)O)cc2)NC(=O)[C@H](C(C)O)NC(=O)CSC[C@@H](C(=O)N[C@@H](CCN)C(N)=O)NC(=O)[C@H](C(C)O)NC(=O)[C@H](C(C)(C)O)NC(=O)[C@H](CC2CCCCC2)NC(=O)[C@H](CCN)NC1=O (stereo partly drawn) [Compound 2631] ({CH2CO}-[Thr(3ξ)]Y(Carboxymethyl)DWV[Bip]V[Orn][dL][Dab][Cha][Val(3-OH)][Thr(3ξ)]C[Dab]-NH2; thioether N-14) | 8.5 nM |
| CC(C)C[C@H]1NC(=O)[C@H](CCCN)NC(=O)[C@H](C(C)C)NC(=O)[C@H](Cc2ccc(-c3ccccc3)cc2)NC(=O)[C@H](C(C)C)NC(=O)[C@H](Cc2c[nH]c3ccccc23)NC(=O)[C@H](CC(=O)O)NC(=O)[C@H](Cc2ccc(OCC(=O)O)cc2)NC(=O)[C@H](CN)NC(=O)CSC[C@@H](C(=O)N[C@@H](C)C(N)=O)NC(=O)[C@H]([C@@H](C)O)NC(=O)[C@H](C(C)C)NC(=O)[C@H](Cc2ccccc2)NC(=O)[C@H](CCN)NC1=O [Compound 1661] ({CH2CO}-[Dap]Y(Carboxymethyl)DWV[Bip]V[Orn][dL][Dab]FVTCA-NH2; thioether N-14) | 17 nM |

Further compounds by falling IC50, results first:

| IC50 | Compound |
| --- | --- |
| 30.6 nM | CC(C)C[C@H]1NC(=O)[C@H](CCCN)NC(=O)[C@H](CCC(=O)O)NC(=O)[C@H](Cc2ccc(-c3ccccc3)cc2)NC(=O)[C@H](C(C)C)NC(=O)[C@H](Cc2ccccc2F)NC(=O)[C@H](CC(=O)O)NC(=O)[C@H](Cc2ccncc2)NC(=O)[C@H](Cc2ccccc2)NC(=O)CSC[C@@H](C(=O)N[C@@H](C)C(N)=O)NC(=O)[C@H]([C@@H](C)O)NC(=O)[C@H](C(C)C)NC(=O)[C@H](CC2CCCCC2)NC(=O)[C@H](CCN)NC1=O [Compound 2208] ({CH2CO}-F[4Pal]D[Phe(2-F)]V[Bip]E[Orn][dL][Dab][Cha]VTCA-NH2; thioether N-14) |
| 17 nM | CC(C)C[C@H]1NC(=O)[C@H](CCCN)NC(=O)[C@H](CCCNC(N)=O)NC(=O)[C@H](Cc2ccc(-c3ccccc3)cc2)NC(=O)[C@H](C(C)C)NC(=O)[C@H](Cc2c[nH]c3ccccc23)NC(=O)[C@H](CC(=O)O)NC(=O)[C@H](Cc2ccc(OCC(=O)O)cc2)NC(=O)[C@H](Cc2ccc(OCC(=O)O)cc2)NC(=O)CSC[C@@H](C(=O)N[C@@H](C)C(N)=O)NC(=O)[C@H]([C@@H](C)O)NC(=O)[C@H](C(C)C)NC(=O)[C@H](Cc2ccccc2)NC(=O)[C@H](CCN)NC1=O [Compound 1665] ({CH2CO}-Y(Carboxymethyl)Y(Carboxymethyl)DWV[Bip][Cit][Orn][dL][Dab]FVTCA-NH2; thioether N-14) |
